Laboratory results taken from US10858335B2 (Rigel Pharmaceuticals, Inc., priority 2014, dated 2020).
Counter-ions that a name gives are not always drawn.

system: GDF8 signaling (p-SMAD-3 (Ser423/425)); assay: AlphaScreen SureFire SMAD3 (p-Ser423/425) assay, GDF8-stimulated cells (GDF pSMAD); format: cell-based; conditions: Mus musculus, MPC-11, GDF8-stimulated pSMAD3, MPC11; tested as the salt form given; read-out: GDF pSMAD (MPC11) (μM), inhibition of GDF8 signaling
Excerpt: Biological Example 1: AlphaScreen® SureFire® SMAD3 (p-Ser423/425) Assay
The p-SMAD-3 (Ser423/425) SureFire® assay has been designed to measure the phosphorylation of endogenous cellular p-SMAD-3 (Ser423/425) in cell lysates and is a system for the screening of both modulators of receptor activation (e.g. agonists and antagonists) as well as agents acting intracellularly, such as small molecule inhibitors of upstream events. The assay will measure p-SMAD-3 (Ser423/425) activation by either cloned or endogenous receptors, and can be applied to primary cells.
P-SMAD-3 (Ser423/425) SureFire® Assay Protocols
Step A: Preparation of Buffers
1× Lysis buffer: 1 ml of 5× Lysis buffer was diluted with 4 ml of sterile water. After dilution, excess 1× Lysis buffer can be frozen and thawed up to 5 times without loss in activity.
Activation buffer: The buffer was warmed slowly to 37° C. and gently mixed to re-suspend. Activation buffer can be stored at room temperature with no loss in activity.
Reaction buffer: The buffer was kept at 4° C. while in use.
AlphaScreen® Protein A IgG Kit: The kit was stored at 4° C. in the dark.
Reaction buffer+Activation buffer+AlphaScreen® Acceptor beads: Reaction buffer (40 parts), Activation Buffer (10 parts) and Acceptor beads (1 part) were mixed and the mixture was stored at room temperature and used the same day. Mixture was added to 384-well plates; excess mixture was discarded.
Dilution buffer+AlphaScreen® Donor beads: Dilution buffer (20 parts) and Donor beads (1 part) were mixed and the mixture was stored at room temperature and used the same day. Excess mixture was discarded.
Assay control samples: After reconstitution in 250 μl of water, lysates were at −20° C. in single use aliquots.
Step B: Preparation of Samples and Cells
96-well Assay Protocol for 293FT and RMS13 adherent cells can be carried out manually or in high throughput with liquid handling robots.
The cells (80 μL of cells for 96 well plates) were plated in collagen coated tissue culture plates in RPMI or FreeStyle medium (Invitrogen) and incubated overnight. For manual analysis, 6 plates for GDF8, 6 plates for TGFβ, and optionally 6 plates for AlkSca(ALK5 constitutively active) were used.
The compound dilution plates were prepared as follows: 12 μL of DMSO was transferred into first column of 96-well plate, and 16 μL of DMSO was transferred into columns 2-12 of the 96-well plate. 12 μL of compound solution was transferred into first column of the DMSO-containing 96-well plate. Three-fold dilution was performed up to column 10 of the DMSO-containing 96-well plate.
Step C: Treatment and Analysis
The plate containing cells were treated with compounds for about 10 minutes, and then ligand was added. GDF8 or TGFb was added to plates to stimulate. 293FL cells were stimulated for 90 minutes at 37° C.; and RMS13 cells were stimulated for 60 minutes at 37° C. The medium was then removed from the cells, and 1× Lysis Buffer (about 25 μL) was added and the plate was gently agitated on plate shaker for 5-10 minutes.
The lysate (5 μL) was then placed into 384-well shallow plates avoiding the generation of bubbles. To this, the Reaction Buffer+Activation Buffer+AlphaScreen® Acceptor beads mixture (5 μL) was added. The plate was sealed with adhesive cover and shielded from light (e.g., with metal foil), and agitated gently on plate shaker for 2 hours at room temperature.
Dilution buffer+AlphaScreen® Donor beads (2 μL) was then added, and the plate was intubated on the plate shaker for an additional 1½ hours. After completion, the plate was read on Synergy-4 or Enspire plate reader, using AlphaScreen® pSMAD3® settings.
Representative results for inhibition of GDF8 signaling are shown in Table 2(data=GDF pSMAD (MPC11) (μM)): […]

| SMILES | IC50 [µM] |
| --- | --- |
| CN1CCN(CCCNc2ncnc3ccc(-c4cccnc4-c4cc(Cl)ccc4F)cc23)CC1 [compound 1046] | 1.63 |

same assay, conditions: Mus musculus, MPC-11, MPC11; GDF8-stimulated; p-SMAD3 AlphaScreen; read-out: GDF pSMAD (MPC11) (inhibition of GDF8 signaling)

| SMILES | IC50 [µM] |
| --- | --- |
| Fc1ccc(-c2ncccc2-c2ccc3cn[nH]c3c2)cc1F [Compound 98, 6-(2-(3,4-Difluorophenyl)pyridin-3-yl)-1H-indazole] | 10.3 |
| Fc1cc(F)c(-c2ncccc2-c2ccn3nccc3n2)cc1F [compound 915, 5-(2-(2,4,5-Trifluorophenyl)pyridin-3-yl)pyrazolo[1,5-a]pyrimidine] | 0.558 |
| Nc1ncnc2ccc(-c3cccnc3-c3cccc(OCC(F)(F)F)c3)cc12 [compound 484, 6-(2-(3-(2,2,2-Trifluoroethoxy)phenyl)pyridin-3-yl)quinazolin-4-amine] | 0.161 |
| Nc1ccc(-c2ccc3[nH]ncc3c2)c(-c2cccc(C3CC3)c2)n1 [Compound 22, 6-(3-Cyclopropylphenyl)-5-(1H-indazol-5-yl)pyridin-2-amine] | 1.41 |
| Cc1cc(-c2ncccc2-c2ccc3c(cnn3C(=O)OC[C@H](N)Cc3c[nH]c4ccccc34)c2)ccc1F [compound 629, (R)-2-Amino-3-(1H-indol-3-yl)propyl 5-(2-(4-fluoro-3-methylphenyl)pyridin-3-yl)-1H-indazole-1-carboxylate TFA salt] | 0.132 |
| Cn1cnc2ccc(-c3cccnc3-c3ccc(F)c(Cl)c3)cc21 [compound 768, 6-(2-(3-Chloro-4-fluorophenyl)pyridin-3-yl)-1-methyl-1H-benzo[d]imidazole] | 0.327 |
| COc1cc(CNc2cnc(-c3ccc(F)c(C)c3)c(-c3ccc4ncsc4c3)c2)ccc1O [compound 351, 4-(((5-(Benzo[d]thiazol-6-yl)-6-(4-fluoro-3-methylphenyl)pyridin-3-yl)amino)methyl)-2-methoxyphenol] | 0.215 |
| Cc1cc(-c2nc(N)ccc2-c2ccc3[nH]ncc3c2)ccc1F [Compound 21, 6-(4-Fluoro-3-methylphenyl)-5-(1H-indazol-5-yl)pyridin-2-amine] | 1.92 |
| Cc1cc(-c2ncccc2-c2ccc3ncnc(NC(C)C)c3c2)ccc1F [compound 400, 6-(2-(4-Fluoro-3-methylphenyl)pyridin-3-yl)-N-isopropylquinazolin-4-amine] | 5.81 |
| Cc1cc(-c2ncccc2-c2ccc3ncc(N4CCCC4)n3c2)ccc1F [compound 561, 6-(2-(4-Fluoro-3-methylphenyl)pyridin-3-yl)-3-(pyrrolidin-1-yl)imidazo[1,2-a]pyridine] | 11 |
| Cc1cccc(-c2ncccc2-c2ccc3nccn3c2)c1 [Compound 166, 6-(2-m-Tolylpyridin-3-yl)imidazo[1,2-a]pyridine] | 0.109 |
| OCc1cnc2ccc(-c3cccnc3-c3cccc(C4CC4)c3)cn12 [compound 567, (6-(2-(3-Cyclopropylphenyl)pyridin-3-yl)imidazo[1,2-a]pyridin-3-yl)methanol] | 0.225 |
| Cc1cc(-c2ncc(COCC(N)=O)cc2-c2ccc3nccnc3c2)ccc1F [compound 233, 2-((6-(4-Fluoro-3-methylphenyl)-5-(quinoxalin-6-yl)pyridin-3-yl)methoxy)acetamide] | 6.69 |
| Fc1cc(F)c(-c2ncccc2-c2ccc3nccnc3n2)cc1F [compound 741, 6-(2-(2,4,5-Trifluorophenyl)pyridin-3-yl)pyrido[2,3-b]pyrazine] | 10 |
| Cc1ccc(F)c(-c2ncccc2-c2ccc3[nH]ncc3c2)c1 [Compound 73, 5-(2-(2-Fluoro-5-methylphenyl)pyridin-3-yl)-1H-indazole] | 0.497 |
| Oc1cccc(-c2ncccc2-c2cnc3[nH]ncc3c2)c1 [Compound 156, 3-(3-(1H-Pyrazolo[3,4-b]pyridin-5-yl)pyridin-2-yl)phenol] | 1.79 |
| N#Cc1cnc2ccc(-c3cccnc3-c3cccc(F)c3)cn12 [compound 621, 6-(2-(3-Fluorophenyl)pyridin-3-yl)imidazo[1,2-a]pyridine-3-carbonitrile] | 3.93 |
| Cn1cnc2ccc(-c3cccnc3-c3cccc4cccnc34)cc2c1=O [compound 382, 3-Methyl-6-(2-(quinolin-8-yl)pyridin-3-yl)quinazolin-4(3H)-one] | 14.8 |
